biological target: T1, human VDR (Homo sapiens, UniProt P11473); assay: Evaluation of VDR transcription activity in human osteoblasts (HOS cells), luciferase reporter; details: Activity (EC50, VDR transcription activity), HOS cells transfected with human VDR, human RXRα and DR3 luciferase reporter; 21 hours
T1 sequence (P11473 1-427): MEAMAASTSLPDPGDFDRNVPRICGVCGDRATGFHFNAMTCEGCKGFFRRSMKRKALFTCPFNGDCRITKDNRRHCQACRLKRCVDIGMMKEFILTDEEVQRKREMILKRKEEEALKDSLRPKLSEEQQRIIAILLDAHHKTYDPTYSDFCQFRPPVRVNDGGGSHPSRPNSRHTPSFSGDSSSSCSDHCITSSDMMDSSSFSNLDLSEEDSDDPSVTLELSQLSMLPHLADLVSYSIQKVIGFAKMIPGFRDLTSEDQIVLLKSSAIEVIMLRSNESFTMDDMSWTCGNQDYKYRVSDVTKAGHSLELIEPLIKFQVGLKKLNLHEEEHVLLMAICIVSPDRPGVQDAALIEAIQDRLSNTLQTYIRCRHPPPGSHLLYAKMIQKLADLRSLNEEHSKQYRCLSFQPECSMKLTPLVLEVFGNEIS
T1 sequence (P19793 1-462 partner): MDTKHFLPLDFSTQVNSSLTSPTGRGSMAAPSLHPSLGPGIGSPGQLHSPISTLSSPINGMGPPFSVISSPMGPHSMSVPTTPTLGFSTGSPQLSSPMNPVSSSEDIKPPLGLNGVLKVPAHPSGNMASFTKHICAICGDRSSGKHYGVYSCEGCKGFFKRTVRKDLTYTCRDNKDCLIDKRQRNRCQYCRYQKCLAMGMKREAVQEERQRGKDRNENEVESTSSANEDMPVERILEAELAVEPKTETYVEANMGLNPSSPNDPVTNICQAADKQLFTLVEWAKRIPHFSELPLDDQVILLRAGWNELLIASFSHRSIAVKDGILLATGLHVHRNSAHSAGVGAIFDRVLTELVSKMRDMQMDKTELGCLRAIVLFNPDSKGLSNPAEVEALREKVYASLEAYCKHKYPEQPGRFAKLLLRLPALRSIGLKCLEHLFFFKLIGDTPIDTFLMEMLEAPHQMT

Row | Compound | EC50
1 | C=C1/C(=C\C=C2/CCC[C@]3(C)[C@@H]([C@H](C)CN4CCC(O)(C(F)(F)F)C4)CC[C@@H]23)C[C@@H](O)C[C@@H]1O (single isomer, unassigned) [Compound B044a] | < 1 nM
2 | C=C1[C@H](O)CC(=C/C=C2\CCC[C@]3(C)[C@@H]([C@H](C)CN4CCC(O)(C(F)(F)F)C4)CC[C@@H]23)C[C@H]1O (single isomer, unassigned) [Compound B046a] | < 1 nM
3 | C=C1/C(=C\C=C2/CCC[C@]3(C)[C@@H]([C@H](C)CN4CCCC(O)(C(F)(F)F)C4)CC[C@@H]23)C[C@@H](O)C[C@@H]1O (single isomer, unassigned) [Compound C030b] | 1 to 10 nM
4 | C=C1/C(=C\C=C2/CCC[C@]3(C)[C@@H]([C@H](C)CN4CCCC(O)(C(F)(F)F)C4)CC[C@@H]23)C[C@@H](O)[C@H](C)[C@@H]1O (single isomer, unassigned) [Compound C031a] | < 1 nM
5 | C=C1/C(=C\C=C2/CCC[C@]3(C)[C@@H]([C@H](C)CN4CCCC(O)(C(F)(F)F)C4)CC[C@@H]23)C[C@@H](O)[C@H](C)[C@@H]1O (single isomer, unassigned) [Compound C031b] | 1 to 10 nM
6 | C=C1/C(=C\C=C2/CCC[C@]3(C)[C@@H]([C@@H](C)CN4CCCC(O)(C(F)(F)F)C4)CC[C@@H]23)C[C@@H](O)C[C@@H]1O (single isomer, unassigned) [Compound C033a] | < 1 nM
7 | C=C1/C(=C\C=C2/CCC[C@]3(C)[C@@H]([C@@H](C)CN4CCCC(O)(C(F)(F)F)C4)CC[C@@H]23)C[C@@H](O)C[C@@H]1O (single isomer, unassigned) [Compound C033b] | 1 to 10 nM
8 | C=C1/C(=C\C=C2/CCC[C@]3(C)[C@@H]([C@H](C)CN4CCCC(O)(C(F)F)C4)CC[C@@H]23)C[C@@H](O)C[C@@H]1O (single isomer, unassigned) [Compound C034a] | < 1 nM
9 | C=C1/C(=C\C=C2/CCC[C@]3(C)[C@@H]([C@H](C)CN4CCCC(O)(C(F)F)C4)CC[C@@H]23)C[C@@H](O)C[C@@H]1O (single isomer, unassigned) [Compound C034b] | 10 to 100 nM
10 | C[C@H](CN1CCCC(O)(C(F)F)C1)[C@H]1CC[C@H]2/C(=C/C=C3C[C@@H](O)C[C@H](O)C3)CCC[C@]12C (single isomer, unassigned) [Compound C035b] | 10 to 100 nM
11 | C=C1/C(=C\C=C2/CCC[C@]3(C)[C@@H]([C@H](C)CN4CCCC(C)(O)C4)CC[C@@H]23)C[C@@H](O)C[C@@H]1O (single isomer, unassigned) [Compound C037a] | < 1 nM
12 | C=C1/C(=C\C=C2/CCC[C@]3(C)[C@@H]([C@H](C)CN4CCCC(C)(O)C4)CC[C@@H]23)C[C@@H](O)C[C@@H]1O (single isomer, unassigned) [Compound C037b] | 10 to 100 nM
13 | C=C1/C(=C\C=C2/CCC[C@]3(C)[C@@H]([C@H](C)CN4CCCC(O)(CC)C4)CC[C@@H]23)C[C@@H](O)C[C@@H]1O (single isomer, unassigned) [Compound C042a] | < 1 nM
14 | C=C1/C(=C\C=C2/CCC[C@]3(C)[C@@H]([C@H](C)CN4CCCC(C)(OC)C4)CC[C@@H]23)C[C@@H](O)C[C@@H]1O (single isomer, unassigned) [Compound C043a] | 1 to 10 nM
15 | C=C1/C(=C\C=C2/CCC[C@]3(C)[C@@H]([C@H](C)CN4CCCC(C)(OC)C4)CC[C@@H]23)C[C@@H](O)C[C@@H]1O (single isomer, unassigned) [Compound C043b] | 100 to 1000 nM
16 | CCC1(O)CCCN(C[C@@H](C)[C@H]2CC[C@H]3/C(=C/C=C4C[C@@H](O)C[C@H](O)C4)CCC[C@]23C)C1 (single isomer, unassigned) [Compound C044a] | 10 to 100 nM
17 | CCC1(O)CCCN(C[C@@H](C)[C@H]2CC[C@H]3/C(=C/C=C4C[C@@H](O)C[C@H](O)C4)CCC[C@]23C)C1 (single isomer, unassigned) [Compound C044b] | 100 to 1000 nM
18 | C=C1[C@H](O)CC(=C/C=C2\CCC[C@]3(C)[C@@H]([C@H](C)CN4CCCC(O)(CC)C4)CC[C@@H]23)C[C@H]1O (single isomer, unassigned) [Compound C046a] | < 1 nM
19 | C=C1[C@H](O)CC(=C/C=C2\CCC[C@]3(C)[C@@H]([C@H](C)CN4CCCC(O)(CC)C4)CC[C@@H]23)C[C@H]1O (single isomer, unassigned) [Compound C046b] | 1 to 10 nM
20 | C=C1[C@H](O)CC(=C/C=C2\CCC[C@]3(C)[C@@H]([C@H](C)CN4CCCC(C)(OC)C4)CC[C@@H]23)C[C@H]1O (single isomer, unassigned) [Compound C047a] | 1 to 10 nM
21 | C=C1[C@H](O)CC(=C/C=C2\CCC[C@]3(C)[C@@H]([C@H](C)CN4CCCC(C)(OC)C4)CC[C@@H]23)C[C@H]1O (single isomer, unassigned) [Compound C047b] | 10 to 100 nM
22 | C=C1/C(=C\C=C2/CCC[C@]3(C)[C@@H]([C@H](C)CN4CCOC(C(F)(F)F)C4)CC[C@@H]23)C[C@@H](O)[C@H](C)[C@@H]1O (single isomer, unassigned) [Compound D009a] | 1 to 10 nM
23 | C=C1/C(=C\C=C2/CCC[C@]3(C)[C@@H]([C@H](C)CN4CCOC(C(F)(F)F)C4)CC[C@@H]23)C[C@@H](O)[C@H](C)[C@@H]1O (single isomer, unassigned) [Compound D009b] | 10 to 100 nM
24 | C=C1/C(=C\C=C2/CCC[C@]3(C)[C@@H](C(C)CN4CC(F)C4)CC[C@@H]23)C[C@@H](O)C[C@@H]1O (stereo in doubt) [Compound A001, (1R,3S,Z)-5-(2-((1R,3aS,7aR,E)-1-((R)-1-(3-fluoroazetidin-1-yl)propan-2-yl)-7a-methyloctahydro-4H-inden-4-ylidene)ethylidene)-4-methylenecyclohexane-1,3-diol] | 100 to 1000 nM
25 | C=C1C(O)CC(=C/C=C2\CCC[C@]3(C)[C@@H]([C@H](C)CN4CC[C@@H](OC(F)(F)F)C4)CC[C@@H]23)C[C@H]1O (stereo in doubt) [Compound B068, (1R,3S)-5-(2-((1R,3aS,7aR,E)-7a-methyl-1-((S)-1-((R)-3-(trifluoromethoxy)pyrrolidin-1-yl)propan-2-yl)octahydro-4H-inden-4-ylidene)ethylidene)-2-methylenecyclohexane-1,3-diol] | 1 to 10 nM
26 | C[C@H](CN1CC[C@H](OC(F)(F)F)C1)[C@H]1CC[C@H]2/C(=C/C=C3CC(O)C[C@H](O)C3)CCC[C@]12C (stereo in doubt) [Compound B069, (1R,3S)-5-(2-((1R,3aS,7aR,E)-7a-methyl-1-((S)-1-((S)-3-(trifluoromethoxy)pyrrolidin-1-yl)propan-2-yl)octahydro-4H-inden-4-ylidene)ethylidene)cyclohexane-1,3-diol] | 10 to 100 nM
27 | C[C@H](CN1CC[C@](C)(O)C1)[C@H]1CC[C@H]2/C(=C/C=C3CC(O)C[C@H](O)C3)CCC[C@]12C (stereo in doubt) [Compound B072, (1R,3 S)-5-(2-((1R,3aS,7aR,E)-1-((S)-1-((S)-3-hydroxy-3-methylpyrrolidin-1-yl)propan-2-yl)-7a-methyloctahydro-4H-inden-4-ylidene)ethylidene)cyclohexane-1,3-diol] | 10 to 100 nM
28 | C[C@H](CN1CC[C@@](C)(O)C1)[C@H]1CC[C@H]2/C(=C/C=C3CC(O)C[C@H](O)C3)CCC[C@]12C (stereo in doubt) [Compound B075, (1R,3S)-5-(2-((1R,3aS,7aR,E)-1-((S)-1-((R)-3-hydroxy-3-methylpyrrolidin-1-yl)propan-2-yl)-7a-methyloctahydro-4H-inden-4-ylidene)ethylidene)cyclohexane-1,3-diol] | 100 to 1000 nM
29 | C=C1C(O)CC(=C/C=C2\CCC[C@]3(C)[C@@H]([C@H](C)CN4CC[C@@](C)(O)C4)CC[C@@H]23)C[C@H]1O (stereo in doubt) [Compound B076, (1R,3S)-5-(2-((1R,3aS,7aR,E)-1-((S)-1-((R)-3-hydroxy-3-methylpyrrolidin-1-yl)propan-2-yl)-7a-methyloctahydro-4H-inden-4-ylidene)ethylidene)-2-methylenecyclohexane-1,3-diol] | 10 to 100 nM

same assay, conditions: read-out: Activity (EC50, VDR transcription activity); HOS cells transfected with human VDR, human RXRα and DR3 luciferase reporter; 21 hours

Row | Compound | EC50
30 | C=C1/C(=C\C=C2/CCC[C@]3(C)[C@@H]([C@H](C)CN4CCC(O)(C(F)(F)F)C4)CC[C@@H]23)C[C@@H](O)C[C@@H]1O (single isomer, unassigned) [Compound B044b] | < 1 nM
31 | C=C1[C@H](O)CC(=C/C=C2\CCC[C@]3(C)[C@@H]([C@H](C)CN4CCC(O)(C(F)(F)F)C4)CC[C@@H]23)C[C@H]1O (single isomer, unassigned) [Compound B046b] | < 1 nM
